Laboratory results reported in publication PMC4502317, “Two helices in the third intracellular loop determine anoctamin 1 (TMEM16A) activation by calcium” (Pflugers Archiv, 2014).
Where no end group is shown, it is not given here. The star is where a group is joined. Biotin = O=C1N[C@H]2[C@H](CS[C@H]2CCCCC(=O)*)N1

Columns and labels:
[1] = Circular dichroism spectroscopy of reference helix peptides; type: physicochemical
Procedure: To confirm whether the reference helix of ANO1 forms an α-helix, circular dichroism spectroscopy was performed with synthetic peptides spanning the reference helix regions of ANO1 (652-LFEIGIPKMKKFIRYLKL-669) and ANO2 (604-IFEIGVPKLKKLFRKLKD-621).

[2] = tested on: ANO1; assay: Inhibition of Eact-activated ANO1 currents by helix peptides, inside-out patches; type: cell-based, mouse; details: n = 5
Procedure: Fig. 6 Eact, a synthetic agonist of ANO1 acts on the ICL3 region. a Example traces depicting activation by Eact of WT ANO1 (upper left), 444-EEEEE-448 (Δ5E, upper right), ΔICL3 (lower left), and 659-QMQQFIAYLQ-668 mutant (lower right). b Example traces of Eact-induced ANO1 currents, which were blocked by bath application of the reference helix peptide (Ref helix peptide, 651-[…]-671, 4 μM, lower panel) but not by the Ca^2+ sensor helix peptide (CSH peptide, 700-TPEYMEMIIQFGF-712, 10 μM, middle panel). To test the effects of peptide, 1 μM Eact was applied three times. At the second Eact challenge, each peptide was also applied. c A summary of the effects of applications of helix peptides on Eact-induced ANO1 currents. Current amplitudes were normalized to the current amplitude obtained after of the first Eact challenge. Reference helix peptide (black square, n = 5), its Ala-mutant peptide (black inverted triangle, n = 5), Ca^2+ sensor helix peptide (black triangle, n = 5), or vehicle (white circle, n = 14) was applied at the second Eact challenge. *p < 0.05 compared to the relative response of vehicle application, one-way ANOVA followed by Newman-Keuls post hoc test
We then applied the two helix peptides to see if these peptides compete with Eact in activating ANO1.
All mutants were generated from the wild-type construct, mouse ANO1 (pEGFP-N1-mANO1). […]
(§1) Borosilicate glass pipettes (World Precision Instruments, Sarasota, FL) with tip resistances of ~2 Mohms were used to form gigaseals on HEK cells. […] Currents were recorded with a patch-clamp amplifier (Axopatch 200B, […]) with a 1-KHz filter. […]
(§2) The control pipette solution contained 140 mM N-methyl D-glucamine, 2 mM MgCl2, and 10 mM HEPES adjusted to pH 7.2 with HCl. […] The bath solution contained (in mM) 140 N-methyl D-glucamine, 2 MgCl2, 10 HEPES, 10 chelator (EGTA, N(2-hydroxyethyl) ethylenediamine triacetic acid (HEDTA), or nitrilotriacetic acid (NTA)), and a calculated amount of CaCl2 (adjusted with HCl to pH 7.2). […] Free Ca^2+ less than 30 μM in each solution was monitored with Fura-2 fluorometry.

[3] = tested on: ANO1; assay: Block of Ca^2+-induced ANO1 currents by helix peptides, inside-out patches; type: cell-based, mouse; details: 3 μM Ca^2+, E h = +80 mV
Procedure: Fig. 4 The reference helix of the ICL3 region interacts with the Ca^2+ sensor helix in a Ca^2+-dependent way. a, b Physical interaction between the reference and Ca^2+ sensor helices was assessed with a surface plasmon resonance assay. Biotinylated Ca^2+ sensor helix peptide (692-NLEPFAGLTPEYMEM-706) was immobilized on a streptavidin-coated gold sensor chip. Resonance intensities were measured after solutions containing 0, 0.4, and 2.0 mM Ca^2+ and various concentrations of reference helix peptide (651-[…]-671) (a) or its Ala-substituted mutants (651-[…]-671) (b) were flowed through the gold chip. […] Ca^2+ (3 μM) was applied three times to inside-out patches of ANO1-transfected HEK cells. At the second Ca^2+ challenge, the peptides were also given. […] Current amplitudes were normalized to the current amplitude obtained after of the first Ca^2+ challenge. At the second Ca^2+ challenge, reference helix peptide (black circle, **p < 0.01 compared to the relative response of vehicle application, one-way ANOVA, Newman-Keuls post hoc test, n = 13), Ala-replaced reference helix peptide (black inverted triangle, n = 8), the Ca^2+ sensor helix peptide (700-TPEYMEMIIQFGF-712) (black square, **p < 0.01 compared to the relative response of vehicle application, one-way ANOVA, Newman-Keuls post hoc test, n = 7), and vehicle (white circle, n = 8) were also applied […]
as §1, §2

[4] = tested on: biotinylated Ca^2+ sensor helix peptide of ANO1 (692-NLEPFAGLTPEYMEM-706); assay: Surface plasmon resonance, binding to immobilized Ca^2+ sensor helix peptide; set-up: species or system mouse
Procedure: According to the gating hypothesis, physical binding of the two helices and the interference of Ca^2+ in this interaction are key determinants for gating ANO1. To investigate this relationship, physical interaction between the two helices was measured using surface plasmon resonance. A peptide segment (692-NLEPFAGLTPEYMEM-706) spanning the Ca^2+ sensor helix of ANO1 was synthesized, biotinylated at the N-terminus, and immobilized on a streptavidin-coated gold sensor chip. Subsequently, a synthetic peptide spanning the reference helix (651-[…]-671) was passed over the immobilized Ca^2+ sensor helix.
A Biacore 3000 was used for kinetic surface plasmon resonance measurement as previously described. Briefly, a biotinylated peptide (692-NLEPFAGLTPEYMEM-706) was immobilized on a SA chip or custom streptavidin-coated CM5 sensor chip (GE Healthcare), with one flow cell with biotin alone as a reference cell. For the binding assay, HEPES-buffered saline containing 0.005 % of Tween 20 was used as a running buffer. Various concentrations of the reference helix peptide (aa 651–671) were injected for 120 s and dissociated for 240 s at a flow rate of 20 μL/min. Binding curves were analyzed using BIAevaluation 3.1.

[5] = tested on: ANO1 285-AGAYAGA-291 mutant; assay: Eact activation of ANO1 EF-hand-like region mutant; type: cell-based, mouse; details: data not shown
Procedure: (§3) Eact, a synthetic agonist of ANO1, was synthesized for the purpose of treating cystic fibrosis in an attempt to bypass dysfunctioning CFTR channel. Even though Eact was known to activate ANO1, the activation mechanism is not known. We therefore hypothesized that Eact also acts on the ICL3 region.
(§4) All mutants were generated from the wild-type construct, mouse ANO1 (pEGFP-N1-mANO1). Amino acid substitution or deletion mutants were prepared using a site-directed mutagenesis kit (Muta-direct, iNtRON Biotech) or by using the overlap PCR method. Mutations in all mutants were confirmed by sequencing whole nucleotide sequences. […]
as §1, §2

[6] = tested on: ANO1 QYMQ mutant; assay: Eact activation of ANO1 Ca^2+ sensor helix mutant; type: cell-based, mouse; details: data not shown
Procedure: as §3, §4, §1, §2

[7] = tested on: ANO1 659-QMQQFIAYLQ-668 mutant; assay: Eact activation of ANO1 reference helix mutant; type: cell-based, mouse
Procedure: as §3, §4, §1, §2

[8] = tested on: Δ5E ANO1 mutant; assay: Eact activation of Δ5E ANO1 mutant, inside-out patches; type: cell-based, mouse; details: maximal Eact (10 μM)
Procedure: as §3, §4, §1, §2

[9] = tested on: ΔICL3, the deletion mutant of ANO1 in the ICL3 region; assay: Eact activation of ΔICL3 ANO1 mutant; type: cell-based, mouse
Procedure: as §3, §4, §1, §2

[10] = tested on: ANO1; assay: Eact activation of ANO1, inside-out patches; type: cell-based, mouse; details: 1 μM Eact to bath of inside-out patch
Procedure: as §3, §4, §1, §2

[11] = target: T1, Ca2+ sensor helix peptide of ANO1 (692-NLEPFAGLTPEYMEM-706), biotinylated (mouse); assay: SPR; Biacore 3000; biotinylated Ca2+ sensor helix peptide immobilised on an SA chip or custom streptavidin-coated CM5 chip, reference cell with biotin alone; HEPES-buffered saline with 0.005 % Tween 20; various concentrations of reference helix peptide injected for 120 s, dissociation 240 s, 20 uL/min; solutions with 0, 0.4 and 2.0 mM Ca2+ (Ca2+ reduced the interaction dose-dependently); details: both partners purified
T1 construct: Anoctamin 1 (ANO1/TMEM16A), mouse, residues 692-706, Ca2+ sensor helix of the third intracellular loop (ICL3); Held on the streptavidin chip by its N-terminal biotin; also called biotinylated Ca2+ sensor helix peptide; source: synthetic peptide
T1 peptide: Biotin-NLEPFAGLTPEYMEM

For 604-IFEIGVPKLKKLFRKLKD-621, the circular dichroism spectrum [1] was “typical circular dichroism spectrum of an α-helix with a positive band around 192 nm and negative bands around 208 and 222 nm”.

In the case of “651-NLFEIGIPAMAAFIAYLALAA-671 [Ala-mutant reference helix peptide]”, the “effect on Eact-activated ANO1 currents” value ([2]; Ala-substituted peptide with 1 μM Eact) is reported as “failed to inhibit”, the “effect on Ca^2+-induced ANO1 currents” value ([3]; 4 μM Ala-mutant peptide, n = 8) is reported as “failed to block” and the “interaction with Ca^2+ sensor helix peptide” value ([4]; regardless of Ca^2+ concentration (0, 0.4 and 2.0 mM)) is reported as “failed to show any interaction”.

In the case of “651-NLFEIGIPKMKKFIRYLKLRR-671 [reference helix peptide]”, the “effect on Eact-activated ANO1 currents” value ([2]; 4 μM peptide with 1 μM Eact, p < 0.05 vs vehicle, one-way ANOVA, Newman-Keuls) is reported as “significantly inhibited”, the “effect on Ca^2+-induced ANO1 currents” value ([3]; 4 μM peptide, p < 0.01 vs vehicle, one-way ANOVA, Newman-Keuls, n = 13) is reported as “markedly blocked” and the “interaction with Ca^2+ sensor helix peptide” value ([4]; absence of Ca^2+, Biacore 3000, HEPES-buffered saline, 0.005 % Tween 20, 20 μL/min, 120 s injection, 240 s dissociation) is reported as “interacted strongly with the Ca^2+ sensor helix”.

With 652-LFEIGIPKMKKFIRYLKL-669 the circular dichroism spectrum [1] was “typical circular dichroism spectrum of an α-helix with a positive band around 192 nm and negative bands around 208 and 222 nm”.

With “700-TPEYMEMIIQFGF-712 [Ca^2+ sensor helix peptide, Ca^2+ sensor helix peptide (700-…-712)]” the “effect on Eact-activated ANO1 currents” value ([2]; 10 μM peptide with 1 μM Eact) was “failed to inhibit” and the “effect on Ca^2+-induced ANO1 currents” value ([3]; 10 μM peptide, p < 0.01 vs vehicle, one-way ANOVA, Newman-Keuls, n = 7) was “markedly blocked”.

For `COCCN(C(=O)c1cc(OC)c(OC)c(OC)c1)c1nc(-c2ccccc2)cs1` [Eact], the “activation by Eact” value [5] was “activated 285-AGAYAGA-291 mutant”, the “activation by Eact” value [6] was “failed to activate” and the “activation by Eact” value [7] was “failed to activate”. The “activation by Eact” value [8] was “activated the Δ5E ANO1 mutant”, the “activation by Eact” value [9] was “failed to activate” and the “activation of ANO1 by Eact” value [10] was “activated ANO1”.

B1: reference helix peptide of ANO1 (651-NLFEIGIPKMKKFIRYLKLRR-671) (peptide)
peptide: NLFEIGIPKMKKFIRYLKLRR
notes: source: synthetic peptide
B1: binds [11].
